Holding throughout (type): biochemical
For assay [1], the target named is GPR84-Cys^352Ile Gαi2 fusion protein (Homo sapiens, UniProt Q9NQS5). Description: [35S]GTPγS binding, membranes expressing pertussis toxin-resistant GPR84-Cys352Ile Gαi2 fusion; operational model of allosteric modulation. As to the method: The only previous study[3] designed to explore the mode of binding of ligands to GPR84 employed a fusion protein[31],[32] in which the G protein Gαi1 was linked in-frame to the C-terminal tail of GPR84.
Chain of GPR84-Cys^352Ile Gαi2 fusion protein (Q9NQS5 whole entry, the tested form may be a part): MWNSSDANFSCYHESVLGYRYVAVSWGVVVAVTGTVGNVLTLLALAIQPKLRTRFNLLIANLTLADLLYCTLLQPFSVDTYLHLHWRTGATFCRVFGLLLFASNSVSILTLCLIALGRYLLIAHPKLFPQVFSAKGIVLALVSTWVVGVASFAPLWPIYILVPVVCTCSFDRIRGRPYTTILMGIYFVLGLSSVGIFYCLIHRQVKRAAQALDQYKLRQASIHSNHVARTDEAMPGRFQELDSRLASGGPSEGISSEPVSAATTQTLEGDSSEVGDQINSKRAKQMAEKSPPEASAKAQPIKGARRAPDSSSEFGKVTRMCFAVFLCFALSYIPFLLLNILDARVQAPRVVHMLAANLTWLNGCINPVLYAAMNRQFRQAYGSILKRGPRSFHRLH
Chain of GPR84-Cys^352Ile Gαi2 fusion protein (P04899 2-355 C352I, further chain): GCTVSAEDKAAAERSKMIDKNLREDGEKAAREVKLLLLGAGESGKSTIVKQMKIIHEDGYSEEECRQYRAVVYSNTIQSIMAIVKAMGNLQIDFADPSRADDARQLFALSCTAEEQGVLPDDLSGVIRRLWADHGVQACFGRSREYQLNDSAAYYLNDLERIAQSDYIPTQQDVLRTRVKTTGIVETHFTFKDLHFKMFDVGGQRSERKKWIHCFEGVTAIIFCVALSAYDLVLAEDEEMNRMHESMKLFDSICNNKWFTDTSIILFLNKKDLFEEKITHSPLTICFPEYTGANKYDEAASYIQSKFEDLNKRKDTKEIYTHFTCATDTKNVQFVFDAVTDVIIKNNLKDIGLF
Membranes were generated from Flp-In T-REx HEK293 cells treated with 100 ng/mL doxycycline to induce expression of the receptor construct of interest. Cells were washed with ice-cold phosphate-buffered saline, removed from dishes by scraping and centrifuged at 3000 rpm for 5 min at 4 °C. Pellets were resuspended in TE buffer (10 mM Tris-HCl, 0.1 mM EDTA; pH 7.5) containing a protease inhibitor mixture (Roche Applied Science, West Sussex, UK) and homogenized with a 5 ml hand-held homogenizer. This material was centrifuged at 1500 rpm for 5 min at 4 °C and the supernatant was further centrifuged at 50000 rpm for 45 min at 4 °C. The resulting pellet was resuspended in TE buffer and protein content was assessed using a BCA protein assay kit (Pierce, Fisher Scientific, Loughborough, UK).
The reaction was then initiated with addition of [^35S]GTPγS (50 nCi per tube), and the reaction was terminated after 45 minutes incubation at 30 °C by rapid filtration through GF/C glass filters using a 24-well Brandel cell harvester (Alpha Biotech, Glasgow, UK). […] Dried filters were added to 3 mL of Ultima Gold^TM XR (PerkinElmer Life Sciences, Beaconsfield, UK) and [^35S]GTPγS binding was determined by liquid scintillation spectrometry.
To quantify the extent of allosteric interaction between pairs of ligands, data were analysed using an operational model of allosteric modulation described previously. The general version of this model can be depicted by the following equation: E=Em(τA[A](KB+αβ[B])+τB[B]KA)^n/([A]KB+KAKB+[B]KA+α[A][B])^n+(τA[A](KB+αβ[B])+τB[B]KA)^n where, E is the pharmacological effect, [A] and [B] are the orthosteric and allosteric compound concentrations at equilibrium, respectively; KA and KB are the equilibrium dissociation constants of the orthosteric and allosteric ligands respectively, denoting the binding affinities of the two ligands to the receptor; α is the binding cooperativity factor denoting the magnitude and direction of the allosteric effect on binding affinity of the orthosteric agonist to the receptor, β is the activation cooperativity factor representing the measure of the allosteric effect on orthosteric efficacy. τA and τB represent the intrinsic activity of the orthosteric and allosteric ligand, respectively. Em is the maximal possible system response and n denotes the slope factor of the transducer function. In case of global fitting of the allosterism data through this equation, Em and n values were always constrained and other parameters (KA, KB,τA, τB, α, β) were estimated.

For assay [2], the target named is T1, Arg^172Ala GPR84-Cys^352Ile Gαi2 fusion protein (Homo sapiens, UniProt Q9NQS5, R172A).
T1 construct: Cys352Ile Gαi2 (fusion partner, same polypeptide); expressed in transfected cells; host or cells: membranes of Flp-In T-REx 293 cells, doxycycline-induced
T1 sequence (Q9NQS5 2-396 R172A): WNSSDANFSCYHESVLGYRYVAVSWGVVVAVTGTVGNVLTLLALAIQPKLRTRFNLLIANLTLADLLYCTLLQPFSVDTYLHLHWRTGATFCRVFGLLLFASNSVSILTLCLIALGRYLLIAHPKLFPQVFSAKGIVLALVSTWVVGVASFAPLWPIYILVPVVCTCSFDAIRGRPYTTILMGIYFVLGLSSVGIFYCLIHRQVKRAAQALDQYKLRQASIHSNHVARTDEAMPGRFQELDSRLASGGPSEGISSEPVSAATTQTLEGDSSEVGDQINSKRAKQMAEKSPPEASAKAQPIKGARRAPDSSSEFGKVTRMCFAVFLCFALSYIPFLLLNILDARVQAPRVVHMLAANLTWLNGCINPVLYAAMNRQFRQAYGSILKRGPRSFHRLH
The assay can be described thus: [35S]GTPγS binding, Arg172Ala mutant fusion protein. The source says: To try to identify how a MCFA might interact with GPR84 we turned to homology modelling studies. Although GPR84 is not closely related to the other GPCRs that respond to either short chain (FFA2, FFA3) or long chain (FFA1, FFA4) fatty acids[8],[9], in each of the other cases the carboxylate of the fatty acid is co-ordinated by one or more arginine residues located at or near the extracellular surface[12]–[14]. […] As we have highlighted recently[9] GPR84 and the β2-adrenoceptor are only distantly related whilst, of the currently available atomic level GPCR structures, the orexin OX1 receptor[34] has highest overall sequence identity (31%) with GPR84. We, therefore, generated and employed a new homology model of GPR84 based on the transmembrane domain architecture of the OX1 receptor (Fig. 6). However, because ECL2 of GPR84 is very similar in sequence to that of rhodopsin (Fig. 6a), with 43% residue identity over this region, we incorporated this knowledge into the modelling process. In the resulting hybrid model (Fig. 6a) Arg^172 within ECL2 is pointing into the potential binding cavity within the helical bundle. This was not the case when Nikaido et al.,[3] employed the β2-adrenoceptor-based model, probably because the ECL2 sequences of the β2-adrenoceptor and GPR84 have no relatedness. […] To assess this we mutated Arg^172 to Ala within the setting of the GPR84-Cys^352Ile Gαi2 fusion protein. […] Equivalent results were obtained in studies in which the Arg^172Ala mutation was introduced into the FLAG-hGPR84-eYFP construct (Fig. 7b).
FLAG-humanGPR84-Gαi2 fusion proteins were constructed by replacing eYFP within the FLAG-humanGPR84-eYFP-pcDNA5/FRT/TO construct with sequence corresponding to Gαi2 or Cys^352Ile Gαi2 using NotI and XhoI restriction enzymes. Site-directed mutagenesis to generate point mutants of GPR84 was performed according to the QuikChange method (Stratagene, Cheshire, UK). The identity of all constructs was verified by nucleotide sequencing.
Initially, 5 μg of generated membrane protein was pre-incubated for 15 min at 25 °C in assay buffer (20 mM HEPES, 5 mM MgCl2; 160 mM NaCl; 1 μM GDP; 0.05% fatty acid-free bovine serum albumin; pH 7.5) containing the indicated ligand concentrations. […] The reaction was then initiated with addition of [^35S]GTPγS (50 nCi per tube), and the reaction was terminated after 45 minutes incubation at 30 °C by rapid filtration through GF/C glass filters using a 24-well Brandel cell harvester (Alpha Biotech, Glasgow, UK). Unbound radioligand was removed from filters by three washes with ice-cold phosphate buffered saline (pH 7.4) and filters were dried for 2–3 h at room temperature. Dried filters were added to 3 mL of Ultima Gold^TM XR (PerkinElmer Life Sciences, Beaconsfield, UK) and [^35S]GTPγS binding was determined by liquid scintillation spectrometry.

The target in assay [3] is T2, FLAG-Arg^174Ala hGPR84-eYFP (Homo sapiens, UniProt Q9NQS5, R174A).
T2 construct: expressed in transfected cells; host or cells: membranes of Flp-In T-REx 293 cells, doxycycline-induced
T2 sequence (Q9NQS5 whole entry R174A): as the sequence (Q9NQS5 whole entry, the tested form may be a part) above, with R174A counted along it
The assay can be described thus: [35S]GTPγS binding, Arg174Ala mutant receptor.

The mark [4] stands for this setting: agonist DIM, modulator compound-1.

As to `CCCCCCCCCC(=O)O` [C10, decanoic acid], in assay [1], the “co-addition with compound-1 or embelin, effect on potency” value was “did not result in modulation of the potency”. Also, in assay [1] (agonist C-10, modulator DIM), the logα was found to be 1.4 ± 0.1 and the logβ worked out at 0.4 ± 0.07. Besides, the “agonist response at Arg172Ala mutant” value in assay [2] is “no response”. The “effect of Arg174Ala mutation on agonist function or potency” value in assay [3] is “did not affect function or potency”.

On to `c1ccc2c(Cc3c[nH]c4ccccc34)c[nH]c2c1` [DIM, 3,-3′-diindolylmethane], for which the “increase in potency of DIM to activate GPR84 at high levels of C10 or other MCFAs versus absence of C10” value in assay [1] was about 20 fold. Also, the logα in assay [1] (agonist DIM, modulator C-10) is recorded as 1.3 ± 0.1; in assay [1] (setting [4]) it was 1.8 ± 0.08; in assay [1] (agonist DIM, modulator embelin), 1.12 ± 0.04. The logβ in assay [1] (agonist DIM, modulator C-10) worked out at 1.2 ± 0.05; in assay [1] (setting [4]), 1.14 ± 0.03; in assay [1] (agonist DIM, modulator embelin), 1.0 ± 0.03. Besides, the “allosteric effect on potency of C10” value in assay [1] (co-addition of increasing concentrations of DIM, pertussis toxin-treated cells) is listed as “positive allosteric modulator”. Moreover, the “effect on measured potency of compound-1 and embelin” value in assay [1] (increasing concentrations of DIM) was “enhancing the measured potency”. Moreover, in assay [1] (pertussis toxin-resistant fusion, pertussis toxin 24 h), the “response after pertussis toxin treatment” value is on record as “unaffected”. For the same compound, the “agonist response at Arg172Ala mutant” value in assay [2] is given as “retained full activity”. The “effect of Arg174Ala mutation on agonist function or potency” value in assay [3] was “did not affect function or potency”.

Source of the values: publication PMC5738391, “Three classes of ligands each bind to distinct sites on the orphan G protein-coupled receptor GPR84” (Scientific Reports, 2017).
